In patent US12441730B2, “PRMT5 inhibitors” (Merck Sharp & Dohme LLC, priority 2019, dated 2025):
Like-named read-outs stand apart in the source and are kept apart here.

Legend:
[1] = tested on: symmetric dimethylation of arginine (SDMA) of PRMT5 substrates in MCF-7 cells; assay: PRMT5 Cell Target Engagement (TE) Assay; format: cell-based; settings: Homo sapiens, MCF7, 72 h, 3 days treatment, SDMA high content imaging
How it was run: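 MCF-7 cells treated 3 days at 37 °C with a ten-point 1:3 titration from 10000 nM. Fixed cells immunostained with anti-SDMA and Alexa488 secondary; nuclear fluorescence quantified by high-content imaging versus DMSO wells, with IC50 from a 4-parameter fit.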

[2] = biological target: T1, Full-length (FL)-PRMT5-MEP50 enzyme complex (Homo sapiens, UniProt O14744); assay: PRMT5-MEP50 Enzyme Methylation Assay (Version A); format: biochemical
T1 construct: Full-length (FL)-PRMT5-MEP50 enzyme complex (recombinant proteins from baculovirus-transfected Sf21 cells: FL-PRMT5; MW=73837 kDa and FL-MEP50; MW=38614); made in house; host or cells: baculovirus-transfected Sf21 cells
T1 sequence (O14744 whole entry): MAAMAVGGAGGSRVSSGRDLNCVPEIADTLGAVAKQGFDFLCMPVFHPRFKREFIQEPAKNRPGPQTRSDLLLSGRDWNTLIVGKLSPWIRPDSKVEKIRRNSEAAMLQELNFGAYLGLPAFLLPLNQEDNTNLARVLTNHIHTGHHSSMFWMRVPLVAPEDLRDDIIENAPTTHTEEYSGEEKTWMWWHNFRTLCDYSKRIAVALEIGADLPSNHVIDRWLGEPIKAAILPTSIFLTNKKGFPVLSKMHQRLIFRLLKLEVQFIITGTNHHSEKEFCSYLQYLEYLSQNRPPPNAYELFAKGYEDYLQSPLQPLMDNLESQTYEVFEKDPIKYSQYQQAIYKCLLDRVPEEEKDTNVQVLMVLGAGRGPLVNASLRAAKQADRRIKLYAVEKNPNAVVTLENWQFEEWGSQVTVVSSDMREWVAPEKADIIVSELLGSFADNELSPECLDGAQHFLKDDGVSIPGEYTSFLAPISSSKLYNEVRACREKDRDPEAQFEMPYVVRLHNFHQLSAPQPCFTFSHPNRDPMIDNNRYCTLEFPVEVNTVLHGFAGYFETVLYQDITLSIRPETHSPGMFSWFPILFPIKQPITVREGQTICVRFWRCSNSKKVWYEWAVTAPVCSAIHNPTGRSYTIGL
T1 sequence (Q9BQA1 whole entry partner): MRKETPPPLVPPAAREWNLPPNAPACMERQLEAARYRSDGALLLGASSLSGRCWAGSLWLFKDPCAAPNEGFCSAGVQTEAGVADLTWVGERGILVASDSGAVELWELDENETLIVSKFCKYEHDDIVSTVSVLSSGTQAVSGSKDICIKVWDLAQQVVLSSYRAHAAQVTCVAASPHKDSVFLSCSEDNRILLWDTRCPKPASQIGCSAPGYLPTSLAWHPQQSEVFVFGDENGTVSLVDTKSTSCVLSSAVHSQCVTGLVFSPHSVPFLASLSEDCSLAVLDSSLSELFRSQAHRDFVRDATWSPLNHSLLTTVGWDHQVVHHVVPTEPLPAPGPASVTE
How it was run: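 Compound was pre-incubated with enzyme for 60 min, then reacted 150 min at 37° C. at final 1.0 nM PRMT5-MEP50, 15 μM SAM and 75 nM biotinylated H4R3(Me1) peptide, in 50 mM Bicine pH 8.0 with 1% DMSO. SAMDI mass-spectrometric readout of Me1→Me2 conversion. EC50 from 4- or 7-parameter regression.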

[3] = single EC50 = 4 parameter single site sigmoidal fit, EC50 1 = first value of 7 parameter biphasic fit, read-out: Enzyme Methylation Assay Version A (EC50 or EC50 1)
[4] = second value of 7 parameter biphasic fit, read-out: Enzyme Methylation Assay Version A (EC50 2)

Row | SMILES | EC50 [1] [nM] | EC50 [2, 3] [nM] | EC50 [2, 4] [nM]
1 | CO[C@H](C)c1cc(N(C)Cc2nonc2C)cn2cc(C(=O)N3CC[C@]4(Cc5ccccc5CN4)[C@H](O)C3)nc12 [Example 234, [(3R,3′R)-3′-hydroxy-1,4-dihydro-1′H,2H-spiro[isoquinoline-3,4′-piperidin]-1′-yl](8-[(1R)-1-methoxyethyl]-6-{methyl[(4-methyl-1,2,5-oxadiazol-3-yl)methyl]amino}imidazo[1,2-a]pyridin-2-yl)methanone] | 23.8 | 6.82 | 
2 | CO[C@H](C)c1cc(N2Cc3ncsc3C2)cn2cc(C(=O)N3CC[C@]4(Cc5ccccc5CN4)[C@H](O)C3)nc12 [Example 235, {6-(4,6-dihydro-5H-pyrrolo[3,4-d][1,3]thiazol-5-yl)-8-[(1R)-1-methoxyethyl]imidazo[1,2-a]pyridin-2-yl}[(3R,3′R)-3′-hydroxy-1,4-dihydro-1′H,2H-spiro[isoquinoline-3,4′-piperidin]-1′-yl]methanone] | 62.7 | 20.6 | 
3 | CO[C@H](C)c1cc(N2CC3(CCCO3)C2)cn2cc(C(=O)N3CC[C@]4(Cc5ccccc5CN4)[C@H](O)C3)nc12 [Example 236, [(3R,3′R)-3′-hydroxy-1,4-dihydro-1′H,2H-spiro[isoquinoline-3,4′-piperidin]-1′-yl]{8-[(1R)-1-methoxyethyl]-6-(5-oxa-2-azaspiro[3.4]oct-2-yl)imidazo[1,2-a]pyridin-2-yl}methanone] | 20.6 | 7.09 | 
4 | CO[C@H](C)c1cccn2cc(C(=O)N3CC[C@]4(Cc5ccccc5CN4)[C@H](O)C3)nc12 [Example 237, [(3R,3′R)-3′-hydroxy-1,4-dihydro-1′H,2H-spiro[isoquinoline-3,4′-piperidin]-1′-yl]{8-[(1R)-1-methoxyethyl]imidazo[1,2-a]pyridin-2-yl}methanone] | 258 | 9.13 | 1840

Now from value to compound:

Row | EC50 [1] [nM] | EC50 [2, 3] [nM] | EC50 [2, 4] [nM] | SMILES
5 | 4.25 | 1.27 |  | COc1cccnc1-c1cc([C@@H](C)OC)c2nc(C(=O)N3CC[C@]4(Cc5ccccc5CN4)[C@H](O)C3)cn2c1 [Example 238, [(3R,3′R)-3′-hydroxy-1,4-dihydro-1′H,2H-spiro[isoquinoline-3,4′-piperidin]-1′-yl]{8-[(1R)-1-methoxyethyl]-6-(3-methoxy-2-pyridinyl)imidazo[1,2-a]pyridin-2-yl}methanone]
6 | 3.33 | 0.613 |  | CO[C@H](C)c1cc(-c2cccnc2C)cn2cc(C(=O)N3CC[C@]4(Cc5ccccc5CN4)[C@H](O)C3)nc12 [Example 239, [(3R,3′R)-3′-hydroxy-1,4-dihydro-1′H,2H-spiro[isoquinoline-3,4′-piperidin]-1′-yl]{8-[(1R)-1-methoxyethyl]-6-(2-methyl-3-pyridinyl)imidazo[1 2-a]pyridin-2-yl}methanone]
7 | 21 | 0.376 | 112 | COc1nccc(-c2cc([C@@H](C)OC)c3nc(C(=O)N4CC[C@]5(Cc6ccccc6CN5)[C@H](O)C4)cn3c2)n1 [Example 240, [(3R,3′R)-3′-hydroxy-1,4-dihydro-1′H,2H-spiro[isoquinoline-3,4′-piperidin]-1′-yl]{8-[(1R)-1-methoxyethyl]-6-(2-methoxy-4-pyrimidinyl)imidazo[1,2-a]pyridin-2-yl}methanone]
8 | 4.87 | 0.932 | 211 | CO[C@H](C)c1cc(-c2cncs2)cn2cc(C(=O)N3CC[C@]4(Cc5ccccc5CN4)[C@H](O)C3)nc12 [Example 241, [(3R,3′R)-3′-hydroxy-1,4-dihydro-1′H,2H-spiro[isoquinoline-3,4′-piperidin]-1′-yl]{8-[(1R)-1-methoxyethyl]-6-(1,3-thiazol-5-yl)imidazo[1,2-a]pyridin-2-yl}methanone]
9 | 1.81 | 0.7 |  | CO[C@H](C)c1cc(-c2ccnn2C)cn2cc(C(=O)N3CC[C@]4(Cc5ccccc5CN4)[C@H](O)C3)nc12 [Example 242, [(3R,3′R)-3′-hydroxy-1,4-dihydro-1′H,2H-spiro[isoquinoline-3,4′-piperidin]-1′-yl]{8-[(1R)-1-methoxyethyl]-6-(1-methyl-1H-pyrazol-5-yl)imidazo[1,2-a]pyridin-2-yl}methanone]
